Values quoted from earlier work as cited in patent publication US20070203225A1, “METHOD OF INCREASING ENDOGENOUS ADIPONECTIN PRODUCTION AND LEPTIN PRODUCTION” (priority 2001, published 2007).

Tests used:
Conditions in all cases: metformin 1.0 mM with 0.16 nM insulin, n=18; cited from earlier work
isolated rat adipocytes [1] = test system: isolated rat adipocytes
isolated rat adipocytes [2] = test system: isolated rat adipocytes; remark: listed apart in the source
isolated rat adipocytes [3] = test system: isolated rat adipocytes; remark: listed apart in the source

CN(C)C(=N)N=C(N)N [metformin]
effect on glucose utilization (in words) (isolated rat adipocytes [1]): increases
effect on proportion of glucose metabolized to lactate (in words) (isolated rat adipocytes [2]): increases
effect on leptin secretion (in words) (isolated rat adipocytes [3]): inhibits
